Data: ChEMBL document CHEMBL4507293 (2021)

Legend:
[1] = molecular target: Tyrosine-protein kinase ABL2 (Homo sapiens) (UniProt P42684); conditions: Compound concentration 100.0 nM
[2] = molecular target: BMP-2-inducible protein kinase (Homo sapiens) (UniProt Q9NSY1); conditions: Compound concentration 100.0 nM
[3] = tested on: Mast/stem cell growth factor receptor Kit (Homo sapiens), P10721 [V559D]; conditions: Compound concentration 100.0 nM
[4] = tested on: Receptor-type tyrosine-protein kinase FLT3 (Homo sapiens), P36888 [UNDEFINED MUTATION]; conditions: Compound concentration 100.0 nM
[5] = molecular target: Inhibitor of nuclear factor kappa-B kinase subunit epsilon (Homo sapiens) (UniProt Q14164); conditions: Compound concentration 100.0 nM
[6] = molecular target: Interleukin-1 receptor-associated kinase 4 (Homo sapiens) (UniProt Q9NWZ3); conditions: Compound concentration 100.0 nM
[7] = molecular target: Beta-1 adrenergic receptor (Homo sapiens) (UniProt P08588); conditions: Compound concentration 10.0 uM
[8] = molecular target: Serine/threonine-protein kinase 25 (Homo sapiens) (UniProt O00506); conditions: Compound concentration 100.0 nM
[9] = molecular target: T1, Alpha-2C adrenergic receptor (Homo sapiens) (UniProt P18825); conditions: Compound concentration 10.0 uM
T1 sequence (whole entry): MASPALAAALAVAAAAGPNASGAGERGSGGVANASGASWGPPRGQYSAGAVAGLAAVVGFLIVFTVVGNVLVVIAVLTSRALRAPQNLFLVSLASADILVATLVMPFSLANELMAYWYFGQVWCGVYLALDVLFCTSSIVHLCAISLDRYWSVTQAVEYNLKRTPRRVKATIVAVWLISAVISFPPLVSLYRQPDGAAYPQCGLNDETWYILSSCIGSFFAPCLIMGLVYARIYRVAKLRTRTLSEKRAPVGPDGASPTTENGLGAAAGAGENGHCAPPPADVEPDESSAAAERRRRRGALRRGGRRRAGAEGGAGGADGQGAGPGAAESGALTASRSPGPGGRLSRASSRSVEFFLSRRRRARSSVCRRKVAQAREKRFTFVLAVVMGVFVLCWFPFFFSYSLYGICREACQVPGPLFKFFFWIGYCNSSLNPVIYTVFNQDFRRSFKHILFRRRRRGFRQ

[10] = molecular target: Mitogen-activated protein kinase kinase kinase 6 (Homo sapiens) (UniProt O95382); conditions: Compound concentration 100.0 nM
[11] = molecular target: 5-hydroxytryptamine receptor 1E (Homo sapiens) (UniProt P28566); conditions: Compound concentration 10.0 uM
[12] = molecular target: Mitogen-activated protein kinase 8 (Homo sapiens) (UniProt P45983); conditions: Compound concentration 100.0 nM
[13] = molecular target: Uncharacterized serine/threonine-protein kinase SBK3 (Homo sapiens) (UniProt P0C264); conditions: Compound concentration 100.0 nM
[14] = molecular target: Tyrosine-protein kinase JAK1 (Homo sapiens) (UniProt P23458); conditions: Compound concentration 100.0 nM
Sequence of Tyrosine-protein kinase JAK1 (Homo sapiens) (P23458 whole entry): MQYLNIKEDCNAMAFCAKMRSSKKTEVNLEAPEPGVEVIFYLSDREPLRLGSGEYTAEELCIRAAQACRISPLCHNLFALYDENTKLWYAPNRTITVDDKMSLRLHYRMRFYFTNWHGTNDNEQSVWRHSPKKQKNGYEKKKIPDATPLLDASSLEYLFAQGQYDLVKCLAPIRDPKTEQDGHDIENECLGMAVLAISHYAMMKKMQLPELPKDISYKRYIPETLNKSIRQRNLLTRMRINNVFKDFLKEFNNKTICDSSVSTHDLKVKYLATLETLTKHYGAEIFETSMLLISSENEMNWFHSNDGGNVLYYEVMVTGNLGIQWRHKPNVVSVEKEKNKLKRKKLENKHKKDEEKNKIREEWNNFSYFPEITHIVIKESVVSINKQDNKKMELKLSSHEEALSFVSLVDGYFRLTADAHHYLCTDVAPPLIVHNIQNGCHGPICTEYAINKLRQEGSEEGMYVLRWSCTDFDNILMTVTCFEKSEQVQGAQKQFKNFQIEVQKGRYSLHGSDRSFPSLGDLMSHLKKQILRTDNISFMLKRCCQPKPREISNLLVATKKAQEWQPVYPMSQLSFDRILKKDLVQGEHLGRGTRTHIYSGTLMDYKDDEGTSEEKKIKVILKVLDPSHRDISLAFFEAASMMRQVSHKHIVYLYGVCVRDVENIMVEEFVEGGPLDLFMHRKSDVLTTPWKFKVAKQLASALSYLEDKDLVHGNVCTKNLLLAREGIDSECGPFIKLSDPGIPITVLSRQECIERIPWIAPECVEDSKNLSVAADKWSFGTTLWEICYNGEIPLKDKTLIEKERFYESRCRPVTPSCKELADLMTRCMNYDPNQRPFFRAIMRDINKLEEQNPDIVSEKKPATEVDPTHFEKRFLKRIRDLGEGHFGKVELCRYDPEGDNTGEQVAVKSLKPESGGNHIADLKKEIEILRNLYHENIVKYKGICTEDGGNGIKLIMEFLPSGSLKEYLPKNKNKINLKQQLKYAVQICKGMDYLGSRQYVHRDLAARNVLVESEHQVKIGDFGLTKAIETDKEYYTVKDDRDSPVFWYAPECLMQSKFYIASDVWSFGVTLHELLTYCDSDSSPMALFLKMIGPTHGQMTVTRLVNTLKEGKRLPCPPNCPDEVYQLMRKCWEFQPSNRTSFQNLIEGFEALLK

[15] = molecular target: Serine/threonine-protein kinase Nek11 (Homo sapiens) (UniProt Q8NG66); conditions: Compound concentration 100.0 nM
[16] = molecular target: Serine/threonine-protein kinase RIO3 (Homo sapiens) (UniProt O14730); conditions: Compound concentration 100.0 nM
Sequence of Serine/threonine-protein kinase RIO3 (Homo sapiens) (O14730 whole entry): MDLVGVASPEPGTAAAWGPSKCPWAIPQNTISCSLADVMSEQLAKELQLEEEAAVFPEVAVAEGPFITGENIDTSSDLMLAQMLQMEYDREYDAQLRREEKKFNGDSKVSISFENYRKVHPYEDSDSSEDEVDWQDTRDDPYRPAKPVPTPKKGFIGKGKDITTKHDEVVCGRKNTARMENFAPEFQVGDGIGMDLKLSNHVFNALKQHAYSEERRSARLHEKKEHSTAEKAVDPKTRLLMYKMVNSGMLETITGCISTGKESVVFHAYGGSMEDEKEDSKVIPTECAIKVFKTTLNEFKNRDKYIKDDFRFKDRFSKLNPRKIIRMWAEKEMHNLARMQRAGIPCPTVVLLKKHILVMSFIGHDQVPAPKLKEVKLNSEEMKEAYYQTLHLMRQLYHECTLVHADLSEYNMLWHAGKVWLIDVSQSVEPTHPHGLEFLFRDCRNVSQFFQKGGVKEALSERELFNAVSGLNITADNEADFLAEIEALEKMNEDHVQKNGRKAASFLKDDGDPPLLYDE

[17] = molecular target: Serine/threonine-protein kinase NLK (Homo sapiens) (UniProt Q9UBE8); conditions: Compound concentration 100.0 nM
[18] = molecular target: Cyclin-dependent kinase 4 (Homo sapiens) (UniProt P11802); conditions: Compound concentration 100.0 nM
[19] = molecular target: D(3) dopamine receptor (Homo sapiens) (UniProt P35462); conditions: Compound concentration 10.0 uM
[20] = molecular target: Serine/threonine-protein kinase OSR1 (Homo sapiens) (UniProt O95747); conditions: Compound concentration 100.0 nM
[21] = molecular target: Serine/threonine-protein kinase MRCK alpha (Homo sapiens) (UniProt Q5VT25); conditions: Compound concentration 100.0 nM
Sequence of Serine/threonine-protein kinase MRCK alpha (Homo sapiens) (Q5VT25 whole entry): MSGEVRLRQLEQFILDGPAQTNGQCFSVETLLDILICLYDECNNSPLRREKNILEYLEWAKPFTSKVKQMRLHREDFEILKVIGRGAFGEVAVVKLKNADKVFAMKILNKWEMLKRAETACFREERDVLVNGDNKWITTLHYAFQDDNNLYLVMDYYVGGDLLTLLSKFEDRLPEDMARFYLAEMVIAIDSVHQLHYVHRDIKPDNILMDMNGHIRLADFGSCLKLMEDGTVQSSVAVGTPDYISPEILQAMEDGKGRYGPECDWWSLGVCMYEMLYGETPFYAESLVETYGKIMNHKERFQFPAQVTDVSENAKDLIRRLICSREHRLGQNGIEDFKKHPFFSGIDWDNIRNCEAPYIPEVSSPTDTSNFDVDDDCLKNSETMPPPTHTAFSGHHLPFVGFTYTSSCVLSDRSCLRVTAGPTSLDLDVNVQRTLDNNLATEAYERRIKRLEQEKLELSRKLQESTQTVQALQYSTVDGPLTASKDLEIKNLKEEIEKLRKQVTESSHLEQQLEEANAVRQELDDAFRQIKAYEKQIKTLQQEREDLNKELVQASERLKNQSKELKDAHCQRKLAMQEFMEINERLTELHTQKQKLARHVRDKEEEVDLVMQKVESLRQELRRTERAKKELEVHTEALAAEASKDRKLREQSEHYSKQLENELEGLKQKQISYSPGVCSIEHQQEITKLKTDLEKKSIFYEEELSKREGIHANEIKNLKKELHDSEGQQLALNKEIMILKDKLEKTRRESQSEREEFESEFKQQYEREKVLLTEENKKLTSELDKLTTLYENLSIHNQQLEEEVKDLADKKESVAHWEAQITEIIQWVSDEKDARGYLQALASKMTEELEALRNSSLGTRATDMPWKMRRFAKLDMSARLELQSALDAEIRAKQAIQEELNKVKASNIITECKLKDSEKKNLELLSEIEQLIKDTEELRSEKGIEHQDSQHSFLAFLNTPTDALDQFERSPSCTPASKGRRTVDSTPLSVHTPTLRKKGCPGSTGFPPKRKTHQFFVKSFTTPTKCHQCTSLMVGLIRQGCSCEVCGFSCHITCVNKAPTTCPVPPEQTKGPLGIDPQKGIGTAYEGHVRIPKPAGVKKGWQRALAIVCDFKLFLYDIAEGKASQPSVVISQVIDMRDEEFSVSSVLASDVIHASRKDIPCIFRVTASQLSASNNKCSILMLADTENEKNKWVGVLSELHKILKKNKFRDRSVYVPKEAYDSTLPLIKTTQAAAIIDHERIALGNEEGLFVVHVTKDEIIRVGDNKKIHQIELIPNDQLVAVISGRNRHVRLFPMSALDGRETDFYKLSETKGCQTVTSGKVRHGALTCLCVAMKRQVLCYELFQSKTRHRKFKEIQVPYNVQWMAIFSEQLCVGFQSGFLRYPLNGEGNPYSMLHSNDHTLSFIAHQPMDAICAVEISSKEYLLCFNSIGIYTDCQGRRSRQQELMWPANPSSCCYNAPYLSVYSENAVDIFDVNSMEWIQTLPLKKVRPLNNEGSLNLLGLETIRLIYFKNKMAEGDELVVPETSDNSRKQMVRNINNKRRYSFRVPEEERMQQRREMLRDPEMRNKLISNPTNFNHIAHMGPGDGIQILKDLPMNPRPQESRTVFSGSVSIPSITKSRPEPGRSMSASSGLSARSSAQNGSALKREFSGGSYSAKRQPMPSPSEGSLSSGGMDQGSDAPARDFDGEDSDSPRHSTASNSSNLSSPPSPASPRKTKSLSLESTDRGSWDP

[22] = tested on: Mast/stem cell growth factor receptor Kit (Homo sapiens), P10721 [D816H]; conditions: Compound concentration 100.0 nM
[23] = molecular target: Serine/threonine-protein kinase Chk2 (Homo sapiens) (UniProt O96017); conditions: Compound concentration 100.0 nM
[24] = molecular target: 5-hydroxytryptamine receptor 7 (Homo sapiens, UniProt P34969); conditions: Compound concentration 10.0 uM
Sequence of 5-hydroxytryptamine receptor 7 (P34969 whole entry): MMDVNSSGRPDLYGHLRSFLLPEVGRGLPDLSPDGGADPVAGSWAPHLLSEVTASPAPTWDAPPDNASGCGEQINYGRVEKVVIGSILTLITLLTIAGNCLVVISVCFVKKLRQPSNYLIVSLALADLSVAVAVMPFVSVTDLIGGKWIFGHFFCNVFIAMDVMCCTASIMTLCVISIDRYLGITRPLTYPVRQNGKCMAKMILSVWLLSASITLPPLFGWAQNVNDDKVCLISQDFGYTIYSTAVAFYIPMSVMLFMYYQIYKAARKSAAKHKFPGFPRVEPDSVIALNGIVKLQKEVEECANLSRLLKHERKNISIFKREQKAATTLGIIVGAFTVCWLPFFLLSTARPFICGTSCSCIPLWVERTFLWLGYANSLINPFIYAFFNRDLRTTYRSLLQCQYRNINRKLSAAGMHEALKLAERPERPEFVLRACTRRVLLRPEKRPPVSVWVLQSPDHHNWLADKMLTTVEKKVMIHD

[25] = molecular target: Cyclin-dependent kinase-like 2 (Homo sapiens) (UniProt Q92772); conditions: Compound concentration 100.0 nM
[26] = molecular target: Dual specificity mitogen-activated protein kinase kinase 3 (Homo sapiens) (UniProt P46734); conditions: Compound concentration 100.0 nM
[27] = molecular target: Serine/threonine-protein kinase 32B (Homo sapiens) (UniProt Q9NY57); conditions: Compound concentration 100.0 nM
[28] = molecular target: Cyclin-dependent kinase 15 (Homo sapiens) (UniProt Q96Q40); conditions: Compound concentration 100.0 nM
[29] = molecular target: Serine/threonine-protein kinase PAK 5 (Homo sapiens) (UniProt Q9P286); conditions: Compound concentration 100.0 nM
[30] = molecular target: Myosin light chain kinase (Homo sapiens) (UniProt Q32MK0); conditions: Compound concentration 100.0 nM
[31] = molecular target: Phosphatidylinositol 3-kinase C2 domain-containing subunit gamma (Homo sapiens) (UniProt O75747); conditions: Compound concentration 100.0 nM
[32] = molecular target: Phosphorylase b kinase regulatory subunit alpha, liver isoform (Homo sapiens) (UniProt P46019); conditions: Compound concentration 100.0 nM
[33] = molecular target: High affinity nerve growth factor receptor (Homo sapiens) (UniProt P04629); conditions: Compound concentration 100.0 nM
[34] = molecular target: Serine/threonine-protein kinase PLK4 (Homo sapiens) (UniProt O00444); conditions: Compound concentration 100.0 nM
[35] = molecular target: Tyrosine-protein kinase Fer (Homo sapiens) (UniProt P16591); conditions: Compound concentration 100.0 nM
[36] = molecular target: Mitogen-activated protein kinase kinase kinase 1 (Homo sapiens) (UniProt Q13233); conditions: Compound concentration 100.0 nM
[37] = molecular target: Receptor-type tyrosine-protein kinase FLT3 (Homo sapiens) (UniProt P36888); conditions: Compound concentration 100.0 nM
[38] = molecular target: Calcium/calmodulin-dependent protein kinase kinase 1 (Homo sapiens) (UniProt Q8N5S9); conditions: Compound concentration 100.0 nM
[39] = molecular target: D(1A) dopamine receptor (Homo sapiens) (UniProt P21728); conditions: Compound concentration 10.0 uM

Sequence of Tyrosine-protein kinase ABL2 (Homo sapiens) (P42684 whole entry): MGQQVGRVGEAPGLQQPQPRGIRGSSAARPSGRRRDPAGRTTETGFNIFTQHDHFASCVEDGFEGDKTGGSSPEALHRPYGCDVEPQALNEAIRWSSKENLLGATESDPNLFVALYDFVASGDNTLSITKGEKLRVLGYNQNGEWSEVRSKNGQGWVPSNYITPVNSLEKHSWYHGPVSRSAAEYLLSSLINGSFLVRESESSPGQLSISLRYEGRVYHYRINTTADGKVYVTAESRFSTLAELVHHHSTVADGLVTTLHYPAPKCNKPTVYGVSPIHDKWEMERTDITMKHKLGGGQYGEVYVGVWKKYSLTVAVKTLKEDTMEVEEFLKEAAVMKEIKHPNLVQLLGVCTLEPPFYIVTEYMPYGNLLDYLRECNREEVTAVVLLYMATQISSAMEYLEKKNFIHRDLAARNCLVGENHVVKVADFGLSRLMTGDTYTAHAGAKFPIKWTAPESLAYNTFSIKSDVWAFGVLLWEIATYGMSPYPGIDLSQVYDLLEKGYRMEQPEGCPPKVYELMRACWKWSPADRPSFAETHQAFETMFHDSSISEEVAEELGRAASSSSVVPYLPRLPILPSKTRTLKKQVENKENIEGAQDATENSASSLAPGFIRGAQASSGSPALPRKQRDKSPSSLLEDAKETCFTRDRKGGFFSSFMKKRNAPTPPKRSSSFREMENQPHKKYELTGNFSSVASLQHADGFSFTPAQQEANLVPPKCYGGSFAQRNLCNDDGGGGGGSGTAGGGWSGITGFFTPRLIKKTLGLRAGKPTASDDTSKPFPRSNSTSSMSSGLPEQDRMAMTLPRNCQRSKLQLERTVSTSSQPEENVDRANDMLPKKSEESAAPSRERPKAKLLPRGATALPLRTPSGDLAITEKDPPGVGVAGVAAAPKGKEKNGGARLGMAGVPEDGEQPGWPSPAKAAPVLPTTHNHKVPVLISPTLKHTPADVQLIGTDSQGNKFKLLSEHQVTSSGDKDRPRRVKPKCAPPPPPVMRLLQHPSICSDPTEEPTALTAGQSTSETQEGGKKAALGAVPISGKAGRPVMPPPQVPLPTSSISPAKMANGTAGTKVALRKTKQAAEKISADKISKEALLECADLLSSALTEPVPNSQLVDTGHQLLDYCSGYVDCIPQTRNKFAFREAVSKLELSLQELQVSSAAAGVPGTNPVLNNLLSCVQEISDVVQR

Row | Structure (SMILES) | residual activity [1] | residual activity [2] | residual activity [3] | residual activity [4] | residual activity [5] | residual activity [6] | inhibition [7] | residual activity [8] | inhibition [9] | residual activity [10] | inhibition [11] | residual activity [12] | residual activity [13] | residual activity [14] | residual activity [15] | residual activity [16] | residual activity [17] | residual activity [18] | inhibition [19] | residual activity [20] | further results
1 | CC(C)CC(=O)N1CCc2nc(-c3ccc(Br)cc3)nc(N(C)Cc3ccccc3)c2C1 [THPP-1-NC] | 100% | 99% | 100% | 99% | 100% | 100% | 29.5% | 100% | 48% | 100% | -5.76% | 100% | 100% | 100% | 98% | 100% | 100% | 100% | 5.44% | 100% | residual activity [21]: 100%; residual activity [22]: 71%; residual activity [23]: 100%; inhibition [24]: 64.5%; residual activity [25]: 87%; residual activity [26]: 100%; residual activity [27]: 87%; residual activity [28]: 100%; residual activity [29]: 100%; residual activity [30]: 98%; residual activity [31]: 100%; residual activity [32]: 100%; residual activity [33]: 100%; residual activity [34]: 70%; residual activity [35]: 100%; residual activity [36]: 100%; residual activity [37]: 100%; residual activity [38]: 100%; inhibition [39]: 18.5%
2 | COCCOc1nc(-c2ccc(Cl)nc2)nc2c1CN(C(=O)c1ncn3ccccc13)CC2 [THPP-1] | 100% | 90% | 100% | 96% | 100% | 100% | 16.8% | 100% | 1.3% | 100% | 6.95% | 100% | 100% | 100% | 100% | 100% | 100% | 93% | -6.15% | 100% | residual activity [21]: 100%; residual activity [22]: 68%; residual activity [23]: 100%; inhibition [24]: 42.3%; residual activity [25]: 98%; residual activity [26]: 93%; residual activity [27]: 100%; residual activity [28]: 100%; residual activity [29]: 100%; residual activity [30]: 83%; residual activity [31]: 100%; residual activity [32]: 100%; residual activity [33]: 100%; residual activity [34]: 85%; residual activity [35]: 100%; residual activity [36]: 100%; residual activity [37]: 100%; residual activity [38]: 100%; inhibition [39]: -8.34%
